PubChem BioAssay (NCI)
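All cell lines were grown in 96-well plates and treated with compound for 48 hours. TGI marks complete inhibition of growth.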

Tests used:
Experiment in all cases: NCI-60 cell line screen, 48 h
HL-60(TB) leukemia = test system: HL-60(TB) leukemia
SF-295 CNS = test system: SF-295 CNS
CCRF-CEM leukemia = test system: CCRF-CEM leukemia
OVCAR-5 ovarian = test system: OVCAR-5 ovarian
NCI-H226 lung = test system: NCI-H226 lung
SK-MEL-5 melanoma = test system: SK-MEL-5 melanoma
TK-10 renal = test system: TK-10 renal
HOP-92 NSCLC = test system: HOP-92 NSCLC
SNB-75 CNS = test system: SNB-75 CNS

Row | SMILES | TGI (HL-60(TB) leukemia) [µM] | TGI (SF-295 CNS) [µM] | TGI (CCRF-CEM leukemia) [µM] | TGI (OVCAR-5 ovarian) [µM] | TGI (NCI-H226 lung) [µM] | TGI (SK-MEL-5 melanoma) [µM] | TGI (TK-10 renal) [µM] | TGI (HOP-92 NSCLC) [µM] | TGI (SNB-75 CNS) [µM]
1 | c1csc(-c2nnc(C34CC5CC(CC(C5)C3)C4)o2)c1 | 33.5 | > 100 | 47.4 | > 100 | > 100 | 30.8 | > 100 | 54.8 | 75.8
2 | Cc1ccc(C2(c3ccc(C)c(O)c3C)CCN(C)CC2)c(C)c1O | – | > 100 | > 100 | > 100 | > 100 | > 100 | 74.4 | > 100 | > 100
3 | C=C1[C@H](OCC(C)C)[C@@H](OC(=O)C(C)CC)[C@@H](O)C(C)(C)/C=C/[C@H](C)C(=O)[C@@]2(O)C[C@H](C)[C@H](O)[C@@H]2[C@H]1OC(=O)C(C)CC (some centres not stated) | 19 | > 16.9 | > 9.76 | > 17.7 | > 20 | > 10.8 | > 19.3 | > 20 | > 18.7
4 | COc1cccc(/C=N/n2c(Cc3ccc(Cl)cc3)n[nH]c2=O)c1 | > 100 | 35.4 | > 100 | > 100 | > 72.3 | > 100 | > 100 | 52.1 | 25.3
5 | CCOC(=O)C1=CN(C(=O)c2ccccc2)CCC1Cc1ccccc1 (configuration not stated) | 32.2 | > 100 | 54.5 | > 100 | > 100 | 28.3 | 75.3 | 54.5 | 70.3
6 | O=C1OC(C(O)C(O)C(O)CO)C(O)C1O (configuration not stated) | > 100 | > 100 | > 100 | > 100 | > 100 | > 100 | > 100 | > 100 | > 100
7 | Cc1[nH]c(=O)[nH]c(=O)c1C(=O)N(CCO)Cc1ccccc1 | > 100 | > 100 | > 100 | > 100 | 43.9 | – | > 100 | > 100 | –
8 | C1=C[C@]2(CCC13OCCO3)COc1ccccc12 | 38.4 | > 100 | > 100 | > 100 | 81.2 | > 100 | > 100 | > 100 | > 100
9 | O=C1/C(=C2\SCC(=O)N2c2ccccc2)SC(=S)N1c1ccccc1 | > 100 | 82.7 | > 100 | > 100 | 48.4 | > 100 | > 100 | 82.7 | –
10 | CC(C)C[C@H](NC(=O)[C@H](CCc1ccccc1)NC(=O)c1ccc2ccccc2n1)B(O)O | 0.0955 | 0.305 | – | 0.617 | 0.367 | 0.647 | 0.407 | 0.28 | 0.175
11 | O=[N+]([O-])c1cc(Cl)ccc1S(=O)(=O)c1cc(Cl)cc2c1NCCC2 | > 100 | > 100 | > 100 | > 100 | > 100 | 43.7 | > 100 | > 100 | > 100
12 | Cc1nc2ccccc2cc1C[N+]12CN3CN(CN(C3)C1)C2 | – | 54.6 | 23.7 | 57.8 | 52.8 | 32.8 | 63.4 | > 100 | 35.6
